The first assay deals with T1, α-7 nicotinic ACh receptor ion channel expressed in HEK 293 cells (Rattus norvegicus, UniProt Q05941).
T1 construct: expressed in transfected cells
T1 sequence (Q05941 23-502): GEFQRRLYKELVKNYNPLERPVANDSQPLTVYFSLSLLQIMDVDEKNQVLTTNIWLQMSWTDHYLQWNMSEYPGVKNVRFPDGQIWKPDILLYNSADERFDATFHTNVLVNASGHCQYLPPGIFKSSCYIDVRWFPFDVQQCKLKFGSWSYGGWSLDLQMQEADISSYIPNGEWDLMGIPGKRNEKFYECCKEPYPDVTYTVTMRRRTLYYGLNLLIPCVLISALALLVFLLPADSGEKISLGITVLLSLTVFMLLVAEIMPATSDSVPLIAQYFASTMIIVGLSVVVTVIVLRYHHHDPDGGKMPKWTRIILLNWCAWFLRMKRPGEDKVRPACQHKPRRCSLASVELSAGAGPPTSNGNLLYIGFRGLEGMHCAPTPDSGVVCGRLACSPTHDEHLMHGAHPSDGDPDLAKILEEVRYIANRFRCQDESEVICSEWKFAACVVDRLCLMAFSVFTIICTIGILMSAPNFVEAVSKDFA
Description: Ca2+-sensitive, fluorescence-based assay for α-7 nicotinic acetylcholine receptor channel function in mammalian cells (FLIPR). Format: cell-based. The following applies: Table 1, agonist Ca2+ flux, read-out: FLIPR α7 (EC50). How it is done:
II) A Ca^2+-Sensitive, Fluorescence-Based Assay α-7 for Nicotinic Acetylcholine Receptor Channel Function in Mammalian Cells (“FLIPR”). Summary:
Lead compounds are evaluated for agonist activity at α-7, α3β4, α4αβ2, and α1β1δ1ε sub-types of nicotinic ACh receptor ion channels expressed in mammalian HEK 293 cells. Agonist potency and efficacy values are determined from kinetic fluorescence Ca^2+ influx measurements made using a 384 well FLIPR (Fluorescence Image Plate Reader). The utility of fluorescent indicators for measuring changes in intracellular divalent cation concentrations, particularly Ca^2+, for drug discovery endeavors is well documented (Rudiger, R., et al., Nature Reviews, 2003, 4:579-586; Gonzalez J. E., et al., Receptors and Channels, 2002, 8:283-295). In this assay, channel expressing HEK cell lines seeded in 384 well assay plates are loaded with a membrane permeant fluorescent Ca^2+ indicator dye, whose 510 nm green emission signal increases in response to elevation of intracellular Ca^2+ concentration. The basal fluorescence from the cells is monitored in real time, followed by the acute addition of test compounds. If the compound is an agonist at any of the non-selective cation channels, the latter open and allow the movement of extracellular Ca^2+ ions into the cell cytoplasm, where they bind to the Ca^2+ indicator dye, and produce an increase in fluorescence output signal, which is detected by a cooled CCD imaging camera.
Reagents: The acetomethoxy (AM) ester of the Ca^2+ indicator dye Fluo-4 was obtained from InVitrogen, (Carlsbad, Calif.). Acetylcholine and all buffer constituents were purchased from Sigma Chemical Company, St. Louis, Mo. G418 and Minimal Essential Medium were purchased from InVitrogen Life Technologies, Carlsbad, Calif. Fetal bovine serum was purchased from (InVitrogen, Carlsbad, Calif.).
HEK-293 cells were grown in Minimal Essential Medium containing 10% (v/v) fetal bovine serum at 37° C. in a 5% CO2 incubator. HEK-293 cells stably expressing the ion channels were grown in the same medium with the addition of 500 μg/ml G418.
HEK-293 cells expressing the ion channels of interest were plated in 384 well, black-walled, clear-bottomed, poly-D-lysine coated plates at a density of ˜20,000 cells/well in 20 μl of Minimal Essential Medium containing 10% (v/v) fetal bovine serum and incubated for 2 days at 29° C. in a 5% CO2 incubator. Prior to assay, cells were loaded with the Fluo-4 AM ester. Cell loading was accomplished by removing the culture medium and replacing it with 30 μl/well of the AM ester of the dye (5 μM) mixed with Hanks Balanced Salt Solution (#14175-095) containing 20 mM HEPES, 2.5 mM probenecid, 0.5 mM CaCl2, 1 mM MgCl2 and 10 μM atropine. Dye loading was allowed to proceed for 90 minutes at room temperature at which time the dye loading solution was removed and replaced with 40 μl/well of Hanks buffer. Cells loaded with dye were loaded onto a FLIPR384 (Molecular Devices, Sunnyvale, Calif.). Fluo-4 dye was excited using the 488 nm line of an argon laser. Emission was filtered using a 540+/−30 nm bandpass filter. For evaluation of the effects of test compounds using the Ca^2+ flux assay, compounds to be tested were provided in assay ready plates. For nicotinic receptor ion channel expressing cells, the assay was initiated by the addition of 20 μl/well of Hanks buffer containing test compounds. For all assays, data were collected at 1 Hz for 10 seconds (baseline), at which time the compound containing stimulus buffers are added, and further measurements collected at 0.33 Hz for 3 min.
The statistical robustness of the nicotinic receptor Ca^2+ flux assays is determined from blanks and totals wells. The totals wells define maximal channel activation for each compound test plate (Maximum efficacious dose of acetylcholine), and the blanks wells which contain matched DMSO only, define zero channel activation. […]
For orientation: Calcium flux is commonly read through the fluorescence of an indicator in the cells.
Consider `O=C(c1cc2cccc(Cl)c2s1)N1CC2CN3CCC2C1C3` (stereo not shown) [Example 1, (7-chlorobenzo[b]thiophen-2-yl)(hexahydro-3,6-methanopyrrolo[2,3-c]pyridin-1(2H)-yl)methanone], for which the EC50 worked out at 1.7 µM.

As for `O=C(c1n[nH]c2ccccc12)N1CC2CN3CCC2C1C3` (stereo not shown) [Example 2, (hexahydro-3,6-methanopyrrolo[2,3-c]pyridin-1(2H)-yl)(1H-indazol-3-yl)methanone], the EC50 worked out at 0.25 µM.

For `O=C(c1ccccc1)N1CC2CN3CCC2C1C3` (stereo not shown) [Example 3, (hexahydro-3,6-methanopyrrolo[2,3-c]pyridin-1(2H)-yl)(phenyl)methanone], the EC50 is greater than 100 µM.

In the case of `O=C(c1ccc(Br)o1)N1CC2CN3CCC2C1C3` (stereo not shown) [Example 7], the EC50 is greater than 100 µM.

On to `O=C(c1sccc1Cl)N1CC2CN3CCC2C1C3` (stereo not shown) [Example 26], for which the EC50 was greater than 100 µM.

`O=C(c1cccc(Cl)n1)N1CC2CN3CCC2C1C3` (stereo not shown) [Example 35]: the EC50 was greater than 100 µM.

With `O=C(c1cc(Cl)ccn1)N1CC2CN3CCC2C1C3` (stereo not shown) [Example 37], the half-maximal effective concentration (EC50) is greater than 100 µM.

Regarding `O=C(c1cc(Br)c(Br)s1)N1CC2CN3CCC2C1C3` (stereo not shown) [Example 51], the EC50 is greater than 100 µM.

On to `O=C(c1sc2cc(F)ccc2c1Cl)N1CC2CN3CCC2C1C3` (stereo not shown) [Example 52], for which the EC50 was greater than 100 µM.

In the case of `Cn1nc2ccccc2c1C(=O)N1CC2CN3CCC2C1C3` (stereo not shown) [Example 54], the EC50 is greater than 100 µM.

Turning to `O=C(c1c[nH]c2ncccc12)N1CC2CN3CCC2C1C3` (stereo not shown) [Example 55], the EC50 is greater than 100 µM.

As to `O=C(c1cc(Br)no1)N1CC2CN3CCC2C1C3` (stereo not shown) [Example 56], the EC50 was greater than 100 µM.

Consider `O=C(c1cc(Br)c(Br)o1)N1CC2CN3CCC2C1C3` (stereo not shown) [Example 57], for which the EC50 is greater than 100 µM.

Turning to `CC(C)c1cc(C(=O)N2CC3CN4CCC3C2C4)on1` (stereo not shown) [Example 58], the 50% effective concentration (EC50) was greater than 100 µM.

Consider `O=C(c1cc(Br)cs1)N1CC2CN3CCC2C1C3` (stereo not shown) [Example 59], for which the EC50 is greater than 100 µM.

For the molecule `COc1cc(Br)cc2cc(C(=O)N3CC4CN5CCC4C3C5)oc12` (stereo not shown) [Example 60], the EC50 is greater than 100 µM.

In the case of `O=C(c1cc(-c2ccccc2)no1)N1CC2CN3CCC2C1C3` (stereo not shown) [Example 62], the EC50 was greater than 100 µM.

As to `Cc1cc(C(=O)N2CC3CN4CCC3C2C4)on1` (stereo not shown) [Example 64], the EC50 was greater than 100 µM.

For `Cc1c(Br)csc1C(=O)N1CC2CN3CCC2C1C3` (stereo not shown) [Example 65], the EC50 was greater than 100 µM.

For `O=C(c1cc(-c2ccccc2)cs1)N1CC2CN3CCC2C1C3` (stereo not shown) [Example 66], the EC50 was greater than 100 µM.

With `O=C(c1sc2ccccc2c1Cl)N1CC2CN3CCC2C1C3` (stereo not shown) [Example 67], the EC50 was greater than 100 µM.

As for `Cc1ccc2c(Cl)c(C(=O)N3CC4CN5CCC4C3C5)sc2c1` (stereo not shown) [Example 68], the EC50 was greater than 100 µM.

For `O=C(c1cc(-c2ccc(Br)cc2)cs1)N1CC2CN3CCC2C1C3` (stereo not shown) [Example 69], the 50% effective concentration (EC50) is greater than 100 µM.

With `Cc1cc(C(=O)N2CC3CN4CCC3C2C4)oc1C` (stereo not shown) [Example 70], the EC50 is greater than 100 µM.

On to `O=C(c1cc2ccc(Cl)cc2s1)N1CC2CN3CCC2C1C3` (stereo not shown) [Example 71], for which the EC50 was greater than 100 µM.

For `O=C(c1cc2c(C(F)(F)F)cccc2s1)N1CC2CN3CCC2C1C3` (stereo not shown) [Example 72], the EC50 was greater than 100 µM.

In the case of `O=C(c1cc2nccnc2s1)N1CC2CN3CCC2C1C3` (stereo not shown) [Example 75], the EC50 was greater than 100 µM.

Turning to `O=C(c1snc(Cl)c1Cl)N1CC2CN3CCC2C1C3` (stereo not shown) [Example 76], the EC50 was greater than 100 µM.

For the molecule `O=C(c1ccns1)N1CC2CN3CCC2C1C3` (stereo not shown) [Example 78], the EC50 is greater than 100 µM.

Consider `O=C(c1sc2cccc(Cl)c2c1Cl)N1CC2CN3CCC2C1C3` (stereo not shown) [Example 79], for which the 50% effective concentration (EC50) was greater than 100 µM.

Consider `O=C(c1c[nH]c2ncc(Br)cc12)N1CC2CN3CCC2C1C3` (stereo not shown) [Example 80], for which the concentration for a half-maximal effect (EC50) worked out at 38 µM.

Take `O=C(c1noc2ccccc12)N1CC2CN3CCC2C1C3` (stereo not shown) [Example 81]: the EC50 came to 8 µM.

In the case of `O=C(c1onc2ccccc12)N1CC2CN3CCC2C1C3` (stereo not shown) [Example 82], the EC50 was greater than 100 µM.

Turning to `CSc1sc(C(=O)N2CC3CN4CCC3C2C4)c2c1C=CCC2` (stereo not shown) [Example 83], the EC50 is greater than 100 µM.

For `O=C(c1cc(-c2ccc(Cl)cc2)cs1)N1CC2CN3CCC2C1C3` (stereo not shown) [Example 84], the EC50 is greater than 100 µM.

As for `O=C(c1sc2cccc(F)c2c1Cl)N1CC2CN3CCC2C1C3` (stereo not shown) [Example 85], the EC50 is greater than 100 µM.

Regarding `Cc1c(C(=O)N2CC3CN4CCC3C2C4)sc2ccc(Cl)cc12` (stereo not shown) [Example 86], the half-maximal effective concentration (EC50) was greater than 100 µM.

The assay is the same for the next values; noted with them: Table 2, agonist Ca2+ flux, read-out: FLIPR α7 (EC50).
Regarding `O=C(c1n[nH]c2ccccc12)N1C[C@H]2C[N@]3CC[C@H]2[C@H]1C3` [Example 88, ((3R,3aR,6S,7aS)-hexahydro-3,6-methanopyrrolo[2,3-c]pyridin-1(2H)-yl)(1H-indazol-3-yl)methanone], the EC50 is 0.39 µM.

`O=C(c1cc2ccccc2s1)N1C[C@H]2C[N@]3CC[C@H]2[C@H]1C3` [Example 89, benzo[b]thiophen-2-yl((3R,3aR,6S,7aS)-hexahydro-3,6-methanopyrrolo[2,3-c]pyridin-1(2H)-yl)methanone]: the EC50 was 18 µM.

As to `Cn1nc(C(=O)N2C[C@H]3C[N@]4CC[C@H]3[C@H]2C4)c2ccccc21` [Example 90, ((3R,3aR,6S,7aS)-hexahydro-3,6-methanopyrrolo[2,3-c]pyridin-1(2H)-yl) (1-methyl-1H-indazol-3-yl)methanone], the EC50 is greater than 100 µM.

On to `Cn1cc(C(=O)N2C[C@H]3C[N@]4CC[C@H]3[C@H]2C4)c2ccccc21` [Example 91, ((3R,3aR,6S,7aS)-hexahydro-3,6-methanopyrrolo[2,3-c]pyridin-1(2H)-yl)(1-methyl-1H-indol-3-yl)methanone], for which the EC50 was greater than 100 µM.

Consider `O=C(c1n[nH]c2ccc(Cl)cc12)N1C[C@H]2C[N@]3CC[C@H]2[C@H]1C3` [Example 92, ((3R,3aR,6S,7aS)-hexahydro-3,6-methanopyrrolo[2,3-c]pyridin-1(2H)-yl)(5-chloro-1H-indazol-3-yl)methanone], for which the EC50 was determined as 0.7 µM.

Turning to `COc1ccc2c(C(=O)N3C[C@H]4C[N@]5CC[C@H]4[C@H]3C5)n[nH]c2c1` [Example 93, ((3R,3aR,6S,7aS)-hexahydro-3,6-methanopyrrolo[2,3-c]pyridin-1(2H)-yl)(6-methoxy-1H-indazol-3-yl)methanone], the EC50 came out at 2.2 µM.

Take `O=C(c1cc2c(Cl)cccc2s1)N1C[C@H]2C[N@]3CC[C@H]2[C@H]1C3` [Example 94, 4-chlorobenzo[b]thiophen-2-yl((3R,3aR,6S,7aS)-hexahydro-3,6-methanopyrrolo[2,3-c]pyridin-1(2H)-yl)methanone]: the EC50 was greater than 100 µM.

On to `COc1cccc2[nH]nc(C(=O)N3C[C@H]4C[N@]5CC[C@H]4[C@H]3C5)c12` [Example 95, ((3R,3aR,6S,7aS)-hexahydro-3,6-methanopyrrolo[2,3-c]pyridin-1(2H)-yl)(4-methoxy-1H-indazol-3-yl)methanone], for which the EC50 was greater than 100 µM.

The same assay, now with this note: Table 3, agonist Ca2+ flux, read-out: FLIPR α7 (EC50).
As to `O=C(c1n[nH]c2ccccc12)N1C[C@@H]2C[N@@]3CC[C@@H]2[C@@H]1C3` [Example 87, ((3S,3aS,6R,7aR)-hexahydro-3,6-methanopyrrolo[2,3-c]pyridin-1(2H)-yl)(1H-indazol-3-yl)methanone], the EC50 was found to be 0.37 µM.

By EC50 is commonly meant the concentration that produces a half-maximal response.
